Assay results taken from patent US10040783B2 (Emory University, priority 2011, dated 2018).
Like-named read-outs stand apart in the source and are kept apart here.

How the values were obtained:
[1] = in vitro; details: rat
[2] = system: C6G cells; assay: CellTiter-Glo luminescent cell viability assay (cytotoxicity)
[3] = target: EP4 receptor (Homo sapiens, UniProt P35408); assay: Schild regression analysis for EP4 receptor; format: cell-based; details: for Kb: read-out: KB (μM) EP4, from Schild regression analysis
EP4 receptor, sequence (P35408 whole entry): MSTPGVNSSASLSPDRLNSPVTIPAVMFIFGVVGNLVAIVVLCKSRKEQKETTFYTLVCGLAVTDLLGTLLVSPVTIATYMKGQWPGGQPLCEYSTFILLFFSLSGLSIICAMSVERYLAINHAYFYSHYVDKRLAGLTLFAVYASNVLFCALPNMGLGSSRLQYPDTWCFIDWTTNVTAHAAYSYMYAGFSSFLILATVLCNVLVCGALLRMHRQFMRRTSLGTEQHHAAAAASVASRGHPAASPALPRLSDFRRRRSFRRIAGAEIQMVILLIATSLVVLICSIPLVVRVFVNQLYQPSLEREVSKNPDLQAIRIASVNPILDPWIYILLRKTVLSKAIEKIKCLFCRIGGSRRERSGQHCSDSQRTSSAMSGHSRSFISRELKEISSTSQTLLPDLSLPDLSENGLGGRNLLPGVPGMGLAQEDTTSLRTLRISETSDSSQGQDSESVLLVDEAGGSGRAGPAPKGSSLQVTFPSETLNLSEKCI
From the text: (§1) Information on the modality of antagonism can be obtained by performing Schild regression analysis characterized by: log (dr−1)=log XB−log KB. In the equation, dose ratio (dr)=fold shift in EC50, XB=[antagonist], KB=equilibrium dissociation constant for the antagonist-receptor complex. […] Thus, a lower KB value indicates a higher inhibitory potency.

[4] = target: EP2 receptor (Homo sapiens, UniProt P43116); assay: Schild regression of PGE2-induced EP2 activation in C6G-EP2 cells; format: cell-based; set-up: expressed in transfected cells; host or cells: C6G-EP2 cells
EP2 receptor, sequence (P43116 whole entry): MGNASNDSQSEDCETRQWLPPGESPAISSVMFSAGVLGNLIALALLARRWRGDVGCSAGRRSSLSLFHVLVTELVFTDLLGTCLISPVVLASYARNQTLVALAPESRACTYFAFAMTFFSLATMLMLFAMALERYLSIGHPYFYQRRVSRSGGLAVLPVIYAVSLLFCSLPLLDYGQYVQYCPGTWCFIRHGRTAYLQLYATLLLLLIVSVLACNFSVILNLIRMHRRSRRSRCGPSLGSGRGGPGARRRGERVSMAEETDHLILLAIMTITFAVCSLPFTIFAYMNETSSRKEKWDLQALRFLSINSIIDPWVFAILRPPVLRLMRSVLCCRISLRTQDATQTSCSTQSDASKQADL
Experimental: as §1
To perform the Schild regression, C6G-EP2 cells were incubated first with vehicle, 0.01, 0.1 or 1 μM of test compound for 5 minutes, then with increasing concentrations of PGE2 to activate the EP2 receptor.

[5] = C6G-EP2 cells, PGE2 as agonist, read-out: KB (nM) EP2, from Schild regression analysis
[6] = additional compounds tables, read-out: EP2 KB

| Structure (SMILES) | CC50 at 48 h ([1]; C6G cells) [µM] | Therapeutic index (in vitro), CC50/KB for EP2 [2] | Selective index, KB EP4/KB EP2 [3] | Kb [3] [µM] | Kb [4, 5] [nM] | Kb [4, 6] [nM] | other results |
| --- | --- | --- | --- | --- | --- | --- | --- |
| COc1cc(C=CC(=O)NCCCn2c(C)cc3ccccc32)cc(OC)c1OC [1j, N-(3-(2-methyl-1H-indol-1-yl)propyl)-3-(3,4,5-trimethoxyphenyl)acrylamide] | 182 | 98 | 3 | 5.7 | 1860 |  |  |
| CCOc1c(Br)cc(CCC(=O)NCCn2c(C)cc3ccccc32)cc1OC [1v] |  |  |  |  | 1.8 |  | Schild plot slope ([4]; C6G-EP2 cells, PGE2): 1.2; Modality of antagonism on EP2 receptor ([4]; Schild plots): competitive antagonism |
| COc1ccc(C=CC(=O)NCCn2c(C)cc3cc(F)ccc32)cc1 [1n, N-(2-(5-fluoro-2-methyl-1H-indol-1-yl)ethyl)-3-(4-methoxyphenyl)acrylamide] | 653 | 15,400 | 277 | 11.7 | 42.4 |  |  |
| Cc1cc2ccccc2n1CCNC(=O)c1cnc2ccc(F)cc2c1O [TG7-148] |  |  |  |  |  | 174 |  |
| COc1cc(C=CC(=O)N(C)CCn2c(C)cc3ccccc32)cc(OC)c1OC [1k, N-methyl-N-(2-(2-methyl-1H-indol-1-yl)ethyl)-3-(3,4,5-trimethoxyphenyl)acrylamide] | 278 | 1,500 | 90 | 16.6 | 185 |  |  |
| Cc1cc2ccccc2n1CCNC(=O)c1ccc(N(C)C)cc1 [TG7-142, 4-(dimethylamino)-N-(2-(2-methyl-1H-indol-1-yl)ethyl)benzamide] |  |  |  |  |  | 10.4 |  |
| Cc1cc2ccccc2n1CCNC(=O)c1nc2cc(F)ccc2[nH]1 [TG7-118] |  |  |  |  |  | 128 |  |
| Cc1cc2ccccc2n1CCNC(=O)C=Cc1cc(F)c(F)c(F)c1 [1t, N-(2-(2-methyl-1H-indol-1-yl)ethyl)-3-(3,4,5-trifluorophenyl)acrylamide] | 46 | 2,460 | 921 | 17.2 | 18.7 |  |  |
| Cc1cc2ccccc2n1CCNC(=O)c1ccc(N2CCN(C)CC2)c(F)c1 [TG7-141, 3-fluoro-N-(2-(2-methyl-1H-indol-1-yl)ethyl)-4-(4-methylpiperazin-1-yl)benzamide] |  |  |  |  |  | 51.1 |  |
| Cc1cc2ccccc2n1CCNC(=O)c1ccc(C(N)=O)cc1 [TG7-140] |  |  |  |  |  | 150 |  |
| COc1ccc(C=CC(=O)NCCn2c(C)nc3ccccc32)cc1OC [1b, 3-(3,4-dimethoxyphenyl)-N-(2-(2-methyl-1H-benzo[d]imidazol-1-yl)ethyl)acrylamide] | 448 | 473 | 14 | 13.3 | 947 |  |  |
| Cc1cc2ccccc2n1CCNC(=O)C=Cc1ccc(F)c(F)c1 [1r, 3-(3,4-difluorophenyl)-N-(2-(2-methyl-1H-indol-1-yl)ethyl)acrylamide] | 89 | 23,400 | 2,800 | 10.6 | 3.8 |  |  |
| Cc1cc2cc(F)ccc2n1CCNC(=O)C=Cc1cc(F)c(F)c(F)c1 [1u, N-(2-(5-fluoro-2-methyl-1H-indol-1-yl)ethyl)-3-(3,4,5-trifluorophenyl)acrylamide] | 62 | 2,230 | 715 | 19.9 | 27.8 |  |  |
| Cc1cc2cc(F)ccc2n1CCNC(=O)C=Cc1ccc(F)c(F)c1 [1s, 3-(3,4-difluorophenyl)-N-(2-(5-fluoro-2-methyl-1H-indol-1-yl)ethyl)acrylamide] | 684 | 97,700 | 1,990 | 13.9 | 7 |  |  |
| CC(=O)Nc1ccc(C(=O)NCCc2c(C)[nH]c3ccccc23)cc1 [TG7-146] |  |  |  |  |  | 138 |  |
| Cc1nc2ccccc2n1CCNC(=O)C=Cc1ccc2c(c1)OCO2 [1c, 3-(benzo[d][1,3]dioxol-5-yl)-N-(2-(2-methyl-1H-benzo[d]imidazol-1-yl)ethyl)acrylamide] | 325 | 219 | 10 | 15.3 | 1490 |  |  |

| Structure (SMILES) | CC50 at 48 h ([1]; C6G cells) [µM] | Therapeutic index (in vitro), CC50/KB for EP2 [2] | Selective index, KB EP4/KB EP2 [3] | Kb [3] [µM] | Kb [4, 5] [nM] | Kb [4, 6] [nM] | other results |
| --- | --- | --- | --- | --- | --- | --- | --- |
| Cc1cc2ccccc2n1CCNC(=O)c1ccc(N)cc1 [TG7-143] |  |  |  |  |  | 207 |  |
| COc1ccc(/C=C/C(=O)NCCn2c(C(F)(F)F)cc3ccccc32)cc1OC [1i] |  | 3,550 | 381 | 22.4 | 58.8 |  | CC50 ([2]; read-out: CC50, half maximal cytotoxic concentration, C6G cells after 48 h incubation): 209 µM |
| Cc1cc2ccccc2n1CCNC(=O)c1c[nH]c2c(F)cccc2c1=O [TG7-131] |  |  |  |  |  | 630 |  |
| Cc1cc(/C=C/C(=O)NCCn2c(C(F)(F)F)cc3ccccc32)cc(C)c1F [TG7-13] |  |  |  |  |  | 288 |  |
| COc1ccc(C=CC(=O)NCCn2c(C)cc3cc(F)ccc32)cc1OC [1g, 3-(3,4-dimethoxyphenyl)-N-(2-(5-fluoro-2-methyl-1H-indol-1-yl)ethyl)acrylamide] | 264 | 11,900 | 77 | 1.7 | 22.2 |  |  |
| COc1cccc2c1C(=O)c1c(O)c3c(c(O)c1C2=O)C[C@@](O)(C(=O)CO)C[C@@H]3O[C@H]1C[C@H](N)[C@H](O)[C@H](C)O1 [doxorubicin, reference compound] |  |  |  |  |  |  | CC50 at 48 h [1]: 0.2 µM |
| COc1cc(C=CC(=O)NCCn2cnc3ccccc32)cc(OC)c1OC [1d, N-(2-(1H-benzo[d]imidazol-1-yl)ethyl)-3-(3,4,5-trimethoxyphenyl)acrylamide] | 311 | 123 | 6 | 13.9 | 2520 |  |  |
| COc1cc(/C=C/C(=O)NCCc2c(C)oc3ccccc23)cc(OC)c1OC [TG7-122] |  |  |  |  |  | 217 |  |
| CCOc1ccc(C=CC(=O)NCCn2c(C)cc3ccccc32)cc1OC [1p, 3-(4-ethoxy-3-methoxyphenyl)-N-(2-(2-methyl-1H-indol-1-yl)ethyl)acrylamide] | 517 | 71,800 | 268 | 1.9 | 7.2 |  |  |
| Cc1cc2ccccc2n1CCNC(=O)C=Cc1ccc(CC(C)C)cc1 [1q, 3-(4-isobutylphenyl)-N-(2-(2-methyl-1H-indol-1-yl)ethyl)acrylamide] | 199 | 2,420 | 367 | 30.2 | 82.4 |  |  |
| COc1cc(C=CC(=O)NCCn2c(C)nc3ccccc32)cc(OC)c1OC [1a, N-(2-(2-methyl-1H-benzo[d]imidazol-1-yl)ethyl)-3-(3,4,5-trimethoxyphenyl)acrylamide] | 360 | 1,030 | 39 | 13.7 | 348 |  |  |
| Cc1cc2ccccc2n1CCNC(=O)c1ccc(C#N)cc1 [TG7-147] |  |  |  |  |  | 139 |  |
| COc1cc(C(=O)NCCn2c(C)cc3ccccc32)cc(OC)c1OC [TG7-112-1] |  |  |  |  |  | > 1000 |  |
| Cc1cc2ccccc2n1CCNC(=O)C1CCC(=O)N1 (stereo not shown) [TG7-120] |  |  |  |  |  | > 1000 |  |
| COc1cc(CCC(=O)NCCn2c(C)cc3ccccc32)cc(OC)c1OC [1l, N-(2-(2-methyl-1H-indol-1-yl)ethyl)-3-(3,4,5-trimethoxyphenyl)propanamide] | 397 |  |  | 18.1 |  |  |  |
